Data taken from PubChem BioAssay AID330 (DTP/NCI, 2004).
Where “and” joins values, the source holds several entries; their conditions need not be identical. Identical values can stand only once. Toxic doses and inconclusive results are not listed. Rule for the calls: active = survival T/C of 150% or more; inactive = T/C below 125% in these data.

System: P388 leukemia ip, CD2F1 mice, survival T/C
Experiment: NCI In Vivo Anticancer Drug Screen. Data for tumor model P388 Leukemia (intraperitoneal) in CD2F1 (CDF1) mice
Conditions: endpoint: median survival time, higher = longer survival
In short: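 Mice carrying the transplanted tumor received test compound or vehicle. Survival was recorded in each group, and the value is the treated-group measurement divided by that of the vehicle-treated control group.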

[1] = dose: 50.0 mg/kg/injection, schedule: Q01DX009 (ip), vehicle: Klucel (hydroxypropylcellulose) (HPC)
[2] = dose: 100.0 mg/kg/injection, schedule: Q01DX009 (ip), vehicle: Klucel (hydroxypropylcellulose) (HPC)
[3] = dose: 200.0 mg/kg/injection, schedule: Q01DX009 (ip), vehicle: Klucel (hydroxypropylcellulose) (HPC)
[4] = dose: 50.0 mg/kg/injection, schedule: Q01DX005 (ip), vehicle: Klucel (hydroxypropylcellulose) (HPC)
[5] = dose: 100.0 mg/kg/injection, schedule: Q01DX005 (ip), vehicle: Klucel (hydroxypropylcellulose) (HPC)
[6] = dose: 50.0 mg/kg/injection, schedule: Q01DX005 (ip), vehicle: saline with Tween-80
[7] = dose: 100.0 mg/kg/injection, schedule: Q01DX005 (ip), vehicle: saline with Tween-80
[8] = dose: 6.25 mg/kg/injection, schedule: Q01DX009 (ip), vehicle: Klucel (hydroxypropylcellulose) (HPC)
[9] = dose: 200.0 mg/kg/injection, schedule: Q01DX005 (ip), vehicle: saline with Tween-80
[10] = dose: 6.25 mg/kg/injection, schedule: Q01DX009 (ip), vehicle: saline with Tween-80
[11] = dose: 12.5 mg/kg/injection, schedule: Q01DX009 (ip), vehicle: saline with Tween-80
[12] = dose: 50.0 mg/kg/injection, schedule: Q01DX009 (ip), vehicle: saline with Tween-80
[13] = dose: 12.5 mg/kg/injection, schedule: Q04DX003 (ip), vehicle: saline with Tween-80
[14] = dose: 25.0 mg/kg/injection, schedule: Q04DX003 (ip), vehicle: saline with Tween-80
[15] = dose: 50.0 mg/kg/injection, schedule: Q04DX003 (ip), vehicle: saline with Tween-80
[16] = dose: 100.0 mg/kg/injection, schedule: Q04DX003 (ip), vehicle: saline with Tween-80

Measured: T/C

COC(=O)C(Cc1c[nH]c2ccccc12)NC(=O)C(NC(=O)OC(C)(C)C)C(C)C (stereo not drawn)
inactive: [1] 101 % of control | [2] 99 % of control | [3] 97 % of control | dose: 400.0 mg/kg/injection, schedule: Q01DX009 (ip), vehicle: Klucel (hydroxypropylcellulose) (HPC) 90 % of control

[CH3][Sn]([CH3])([n]1cc(CC(=O)O)c2ccccc21)[n]1cc(CC(=O)O)c2ccccc21
inactive: [4] 116 % of control | [5] 108 % of control

O=C(OCC(Cl)(Cl)Cl)N1[C@H]2C3=C(CCC3)[C@@H]([C@H]3O[C@H]32)N1C(=O)OCC(Cl)(Cl)Cl
inactive: [4] 97 % of control | [5] 97 % of control | dose: 200.0 mg/kg/injection, schedule: Q01DX005 (ip), vehicle: Klucel (hydroxypropylcellulose) (HPC) 97 % of control

O=[N+]([O-])c1cccc2c(-c3nccc4c([N+](=O)[O-])cccc34)nccc12
inactive: [6] 87 % of control | [7] 87 % of control

COc1ccc(C(=O)N2C=CC(=Cc3ccccc3)C=C2)cc1
inactive: [8] 103 % of control | dose: 12.5 mg/kg/injection, schedule: Q01DX009 (ip), vehicle: Klucel (hydroxypropylcellulose) (HPC) 102 % of control | dose: 25.0 mg/kg/injection, schedule: Q01DX009 (ip), vehicle: Klucel (hydroxypropylcellulose) (HPC) 97 % of control

COC1(c2ccccc2)N=C(N)NC1(OC)c1ccccc1 (stereo not drawn)
inactive: dose: 6.25 mg/kg/injection, schedule: Q04DX002 (ip), vehicle: saline 103 % of control | dose: 12.5 mg/kg/injection, schedule: Q04DX002 (ip), vehicle: saline 102 % of control | dose: 25.0 mg/kg/injection, schedule: Q04DX002 (ip), vehicle: saline 98 % of control

O=C1NCCc2ccc(cc2)OCCC(=O)N2CCCC12 (stereo not drawn)
inactive: dose: 35.0 mg/kg/injection, schedule: Q01DX005 (ip), vehicle: Klucel (hydroxypropylcellulose) (HPC) 107 % of control | dose: 70.0 mg/kg/injection, schedule: Q01DX005 (ip), vehicle: Klucel (hydroxypropylcellulose) (HPC) 104 % of control | dose: 140.0 mg/kg/injection, schedule: Q01DX005 (ip), vehicle: Klucel (hydroxypropylcellulose) (HPC) 98 % of control

N#[N+]c1c([O-])ccc2ccccc12
inactive: dose: 25.0 mg/kg/injection, schedule: Q04DX002 (ip), vehicle: Klucel (hydroxypropylcellulose) (HPC) 92 % of control | dose: 50.0 mg/kg/injection, schedule: Q04DX002 (ip), vehicle: Klucel (hydroxypropylcellulose) (HPC) 104 % of control | dose: 100.0 mg/kg/injection, schedule: Q04DX002 (ip), vehicle: Klucel (hydroxypropylcellulose) (HPC) 90 % of control

CCn1c(=O)c2n[nH]nc2n(CCO)c1=O
inactive: [1] 97 % of control | [2] 100 % of control

O=S(=O)(O/C1=C/CCCCCC1)C(F)(F)F
inactive: dose: 50.0 mg/kg/injection, schedule: Q01DX009 (ip), vehicle: olive oil, sesame oil, peanut oil 97 % of control | dose: 100.0 mg/kg/injection, schedule: Q01DX009 (ip), vehicle: olive oil, sesame oil, peanut oil 113 % of control | dose: 200.0 mg/kg/injection, schedule: Q01DX009 (ip), vehicle: olive oil, sesame oil, peanut oil 103 % of control

O=C(C(=O)N1CCC(O)CC1)c1c[nH]c2ccccc12
inactive: [1] 98 % of control | [2] 101 % of control | [3] 100 % of control

Cc1cc(C)n2ncnc2n1
inactive: dose: 12.5 mg/kg/injection, schedule: Q01DX009 (ip), vehicle: saline 105 % of control | dose: 25.0 mg/kg/injection, schedule: Q01DX009 (ip), vehicle: saline 100 % of control | dose: 50.0 mg/kg/injection, schedule: Q01DX009 (ip), vehicle: saline 100 % of control | dose: 100.0 mg/kg/injection, schedule: Q01DX009 (ip), vehicle: saline 103 % of control

COC(=O)C(O)CC1=CC[C@@H]2CC=C[C@H]12 (stereo partly drawn)
inactive: [6] 104 % of control | [7] 104 % of control | [9] 104 % of control

CC1(CC(C)(C)c2ccccc2)OCCO1
inactive: dose: 25.0 mg/kg/injection, schedule: Q01DX009 (ip), vehicle: water 96 % of control | dose: 50.0 mg/kg/injection, schedule: Q01DX009 (ip), vehicle: water 91 % of control | dose: 100.0 mg/kg/injection, schedule: Q01DX009 (ip), vehicle: water 102 % of control | dose: 200.0 mg/kg/injection, schedule: Q01DX009 (ip), vehicle: water 93 % of control | dose: 400.0 mg/kg/injection, schedule: Q01DX009 (ip), vehicle: water 104 % of control

COc1ccc(Cl)cc1NC(=O)Oc1ccncc1
inactive: dose: 0.78 mg/kg/injection, schedule: Q01DX009 (ip), vehicle: saline with Tween-80 94 % of control | dose: 1.56 mg/kg/injection, schedule: Q01DX009 (ip), vehicle: saline with Tween-80 88 % of control | dose: 3.12 mg/kg/injection, schedule: Q01DX009 (ip), vehicle: saline with Tween-80 87 % of control and 88 % of control | [10] 86 % of control | [11] 88 % of control | [12] 87 % of control | dose: 100.0 mg/kg/injection, schedule: Q01DX009 (ip), vehicle: saline with Tween-80 101 % of control | dose: 200.0 mg/kg/injection, schedule: Q01DX009 (ip), vehicle: saline with Tween-80 94 % of control

CCN(CC)CCSc1ccccc1
inactive: [4] 100 % of control | [5] 102 % of control

O=C(O)c1ccc2nc(-c3ccccc3)cn2c1
inactive: [13] 98 % of control | [14] 98 % of control | [15] 101 % of control and 105 % of control | [16] 106 % of control

C=C/C(C)=C/[C@H](C)C(=O)C[C@H](O)CC1CC(=O)NC(=O)C1
inactive: [10] 102 % of control | dose: 6.25 mg/kg/injection, schedule: Q04DX003 (ip), vehicle: saline with Tween-80 111 % of control | [11] 118 % of control | [13] 108 % of control | [14] 111 % of control | [15] 111 % of control | [16] 121 % of control | dose: 150.0 mg/kg/injection, schedule: Q01DX009 (ip), vehicle: saline 106 % of control | dose: 200.0 mg/kg/injection, schedule: Q04DX003 (ip), vehicle: saline with Tween-80 101 % of control and 121 % of control
active: dose: 25.0 mg/kg/injection, schedule: Q01DX009 (ip), vehicle: saline with Tween-80 155 % of control | dose: 35.0 mg/kg/injection, schedule: Q01DX009 (ip), vehicle: saline with Tween-80 151 % of control | [12] 150 % of control | dose: 75.0 mg/kg/injection, schedule: Q01DX009 (ip), vehicle: saline with Tween-80 168 % of control | dose: 75.0 mg/kg/injection, schedule: Q01DX009 (ip), vehicle: saline 158 % of control

C/C(=N\NC(=S)SCc1ccccc1)c1ccccn1
inactive: dose: 3.12 mg/kg/injection, schedule: Q01DX009 (ip), vehicle: Klucel (hydroxypropylcellulose) (HPC) 108 % of control | [8] 103 % of control and 110 % of control

N#CCCP(=O)(O)CCC#N
inactive: dose: 60.0 mg/kg/injection, schedule: Q01DX005 (ip), vehicle: saline 100 % of control | dose: 120.0 mg/kg/injection, schedule: Q01DX005 (ip), vehicle: saline 100 % of control | dose: 240.0 mg/kg/injection, schedule: Q01DX005 (ip), vehicle: saline 90 % of control

CC1(C)SC(C)(C)N2C(=O)[C@H]3N(C(=O)[C@@H]21)C(C)(C)SC3(C)C
inactive: dose: 12.5 mg/kg/injection, schedule: Q01DX005 (ip), vehicle: saline with Tween-80 100 % of control | dose: 25.0 mg/kg/injection, schedule: Q01DX005 (ip), vehicle: saline with Tween-80 94 % of control | [6] 99 % of control and 91 % of control | [7] 94 % of control | [9] 97 % of control

Nc1cccc(NCc2ccccn2)n1
inactive: [4] 101 % of control | [5] 104 % of control
